From patent publication US10722471B2, “Galenic formulations of organic compounds” (Novartis AG, priority 2016, dated 2020)

Assay: Relative bioavailability and food effect of 200 mg LCZ696 mini-tablets vs 200 mg FMI tablet; randomized, open-label, single dose, crossover study;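 note: crossover design with one dose per period, healthy volunteers, 40 enrolled and 39 completing the study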
Settings: label = analyte; for extent of absorption (AUCs) with a high fat meal: LCZ696 200 mg mini-tablets sprinkled on pudding; for Cmax, geometric mean ratio, Mini tablets vs FMI tablet (Fasting) / AUCinf, geometric mean ratio, Mini tablets vs FMI tablet (Fasting) / AUClast, geometric mean ratio, Mini tablets vs FMI tablet (Fasting) / Cmax, geometric mean ratio, Pudding + High fat meal vs Pudding (Mini tablets) / AUCinf, geometric mean ratio, Pudding + High fat meal vs Pudding (Mini tablets) / AUClast, geometric mean ratio, Pudding + High fat meal vs Pudding (Mini tablets) / Cmax, geometric mean ratio, Pudding vs fasting (Mini tablets) / AUCinf, geometric mean ratio, Pudding vs fasting (Mini tablets) / AUClast, geometric mean ratio, Pudding vs fasting (Mini tablets): LCZ696 200 mg single oral dose, healthy subjects; for Cmax, geometric mean ratio, Mini tablets vs FMI tablet (Fasting) / AUCinf, geometric mean ratio, Mini tablets vs FMI tablet (Fasting) / AUClast, geometric mean ratio, Mini tablets vs FMI tablet (Fasting): test minitablets / reference FMI tablet; for Cmax, geometric mean ratio, Mini tablets vs FMI tablet (Fasting) / Cmax, geometric mean ratio, Pudding + High fat meal vs Pudding (Mini tablets) / Cmax, geometric mean ratio, Pudding vs fasting (Mini tablets): parameter head prints ng/ml; for AUCinf, geometric mean ratio, Mini tablets vs FMI tablet (Fasting) / AUClast, geometric mean ratio, Mini tablets vs FMI tablet (Fasting) / AUCinf, geometric mean ratio, Pudding + High fat meal vs Pudding (Mini tablets) / AUClast, geometric mean ratio, Pudding + High fat meal vs Pudding (Mini tablets) / AUCinf, geometric mean ratio, Pudding vs fasting (Mini tablets) / AUClast, geometric mean ratio, Pudding vs fasting (Mini tablets): parameter head prints ng·h/ml; for Cmax, geometric mean ratio, Pudding + High fat meal vs Pudding (Mini tablets) / AUCinf, geometric mean ratio, Pudding + High fat meal vs Pudding (Mini tablets) / AUClast, geometric mean ratio, Pudding + High fat meal vs Pudding (Mini tablets): test minitablets on pudding + high fat meal / reference minitablets with pudding; for Cmax, geometric mean ratio, Pudding vs fasting (Mini tablets) / AUCinf, geometric mean ratio, Pudding vs fasting (Mini tablets) / AUClast, geometric mean ratio, Pudding vs fasting (Mini tablets): test minitablets with pudding / reference minitablets; for decrease of Cmax with a high fat meal: single dose LCZ696 200 mg mini-tablets sprinkled on pudding

SMILES | extent of absorption (AUCs) with a high fat meal | Cmax, geometric mean ratio, Mini tablets vs FMI tablet (Fasting) | AUCinf, geometric mean ratio, Mini tablets vs FMI tablet (Fasting) | AUClast, geometric mean ratio, Mini tablets vs FMI tablet (Fasting) | Cmax, geometric mean ratio, Pudding + High fat meal vs Pudding (Mini tablets) | AUCinf, geometric mean ratio, Pudding + High fat meal vs Pudding (Mini tablets) | AUClast, geometric mean ratio, Pudding + High fat meal vs Pudding (Mini tablets) | Cmax, geometric mean ratio, Pudding vs fasting (Mini tablets) | AUCinf, geometric mean ratio, Pudding vs fasting (Mini tablets) | AUClast, geometric mean ratio, Pudding vs fasting (Mini tablets) | decrease of Cmax with a high fat meal
C[C@H](C[C@@H](Cc1ccc(-c2ccccc2)cc1)NC(=O)CCC(=O)O)C(=O)O [LBQ657, (2R,4S)-5-biphenyl-4-yl-4-(3-carboxy-propionylamino)-2-methyl-pentanoic acid] | comparable | 0.95 | 0.98 | 0.98 | 0.81 | 1.02 | 1.02 | 0.99 | 1.01 | 1.01 | 19%
CCOC(=O)[C@H](C)C[C@@H](Cc1ccc(-c2ccccc2)cc1)NC(=O)CCC(=O)O [Sacubitril, (2R,4S)-5-biphenyl-4-yl-4-(3-carboxy-propionylamino)-2-methyl-pentanoic acid ethyl ester] | comparable | 0.94 | 0.96 | 0.96 | 0.4 | 1.01 | 1.00 | 1.00 | 1.04 | 1.04 | 60%
CCCCC(=O)N(Cc1ccc(-c2ccccc2-c2nnn[nH]2)cc1)[C@H](C(=O)O)C(C)C [Valsartan, S—N-valeryl-N-{[2′-(1H-tetrazole-5-yl)-biphenyl-4-yl]-methyl}-valine] | – | 1.09 | 1.11 | 1.11 | 0.43 | 0.6 | 0.59 | 1.02 | 1.02 | 1.04 | 57%
